From patent publication US20080255192A1, “Methods and Compositions for Selectin Inhibition” (Wyeth, priority 2007, published 2008)

Target: T1, P-selectin/PSGL-1 interaction (Homo sapiens, UniProt P16109)
T1 construct: comprised of the lectin and epidermal growth factor-like (EGF) domains expressed in CHO cells; made in house; host or cells: CHO cells (P-LE)
T1 sequence (P16109 42-198): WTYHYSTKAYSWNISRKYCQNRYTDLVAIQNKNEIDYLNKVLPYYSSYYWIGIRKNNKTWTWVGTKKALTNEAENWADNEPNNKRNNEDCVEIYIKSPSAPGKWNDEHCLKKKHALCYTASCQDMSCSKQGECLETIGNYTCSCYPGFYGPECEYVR
Experiment: Biacore P-Selectin/PSGL-1 Inhibition Assay (surface plasmon resonance)
Assay type: binding
Details: 250 uM test compound, 500 nM P.LE, immobilized PSGL-1 19ek, 10% DMSO, pH 7.4
Procedure, shortened: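 Biotinylated monomeric human PSGL-1 "19ek" on streptavidin chip (600–700 RU); compounds preincubated 1 h, then mixed with 500 nM P-LE (lectin-EGF, CHO-expressed) at 250 or 500 μM compound, 10% DMSO, HEPES buffer with 1 mM CaCl2/MgCl2, pH 7.4. SPR at 25 °C; percent binding inhibition from double-referenced signals.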

Row | Structure (SMILES) | inhibition at 250 µM
1 | CC(C)c1cccc2c(C(=O)O)c(O)c(C(c3ccccc3)C(C)C)nc12 (stereo not drawn) [Compound 130, 3-Hydroxy-8-isopropyl-2-(2-methyl-1-phenylpropyl)quinoline-4-carboxylic acid] | 40%
2 | Cc1ccc2c(C(=O)O)c(O)c(C(c3ccccc3)C(C)C)nc2c1C (stereo not drawn) [Compound 131, 3-Hydroxy-7,8-dimethyl-2-(2-methyl-1-phenylpropyl)quinoline-4-carboxylic acid] | 90%
3 | CC(Cc1ccccc1)c1nc2c(C(F)(F)F)cccc2c(C(=O)O)c1O (stereo not drawn) [Compound 132, 3-Hydroxy-2-(1-Phenylpropan-2-yl)-8-(trifluoromethyl)quinoline-4-carboxylic acid] | 49%
4 | CC(C)c1cccc2c(C(=O)O)c(O)c(C(C)Cc3ccccc3)nc12 (stereo not drawn) [Compound 133, 3-Hydroxy-8-isopropyl-2-(1-phenylpropan-2-yl)quinoline-4-carboxylic acid] | 64%
5 | O=C(O)c1c(OC(=O)N2CCOCC2)c(Cc2ccc(Cl)cc2)nc2c3c(ccc12)CCCC3 [Compound 138, 2-(4-Chlorobenzyl)-3-[(morpholin-4-ylcarbonyl)oxy]-7,8,9,10-tetrahydrobenzo[h]quinoline-4-carboxylic acid] | 16%

Continued, values first:

Row | inhibition at 250 µM | Structure (SMILES)
6 | 49% | Cc1ccc2c(C(=O)O)c(O)c(C(C)Cc3ccccc3)nc2c1C (stereo not drawn) [Compound 134, 3-Hydroxy-7,8-dimethyl-2-(1-phenylpropan-2-yl)quinoline-4-carboxylic acid]
7 | 46% | CC(Cc1nc2c(C(F)(F)F)cccc2c(C(=O)O)c1O)c1ccccc1 (stereo not drawn) [Compound 135, 3-Hydroxy-2-(2-phenylpropyl)-8-(trifluoromethyl)quinoline-4-carboxylic acid]
8 | 64% | CC(C)c1cccc2c(C(=O)O)c(O)c(CC(C)c3ccccc3)nc12 (stereo not drawn) [Compound 136, 3-Hydroxy-8-isopropyl-2-(2-phenylpropyl)quinoline-4-carboxylic acid]
9 | 31% | Cc1ccc2c(C(=O)O)c(O)c(CC(C)c3ccccc3)nc2c1C (stereo not drawn) [Compound 137, 3-Hydroxy-7,8-dimethyl-2-(2-phenylpropyl)quinoline-4-carboxylic acid]
